# Results as given in PMC9839752, “Formaldehyde reacts with N-terminal proline residues to give bicyclic aminals” (Communications Chemistry, 2023).
# Like-named read-outs stand apart in the source and are kept apart here. Peptide text beside a SMILES is read from it.
# Columns and labels:
# [1] = biological target: T1, 4-OT (Pseudomonas putida, UniProt Q01468); assay: 4-OT absorbance assay (320 nm), kinetic parameters; format: biochemical; conditions: substrate acetaldehyde, 375 µM trans-β-nitrostyrene, 10 µM 4-OT, pH 7.4
# T1 sequence (Q01468 2-63 limits assumed): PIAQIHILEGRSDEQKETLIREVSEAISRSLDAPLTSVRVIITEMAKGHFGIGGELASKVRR
# [2] = 1H NMR time course of reaction of dipeptides with HCHO; format: physicochemical; conditions: dipeptide with 10-fold excess HCHO, pD 10, 1H NMR
# Method: Fig. 3 HCHO reacts with an N-terminal proline to form a methylene bridge between an N-terminal nitrogen and the adjacent peptide bond nitrogen. a Products of reactions between HCHO and the dipeptides AzeGlu (n = 1, 1), ProGlu (n = 2, 2), and PipGlu (n = 3, 3). A 10-fold molar excess of aqueous HCHO (410 µmol) was added to each dipeptide (41 µmol).
# The reactions of the dipeptides with HCHO (10-fold excess, pD 10) were studied in real time by ^1H NMR (Figs. 3c and S18). […] Dipeptide 2 was slower to react (2a formation rate 0.24 μM s^−1), while 3 was the slowest to react (3a formation rate 0.054 μM s^−1). […]
# (§1) NMR Time Course and Stability – Dipeptides
# The dipeptide (23.3 µmol) was dissolved in D 2O; the pD was adjusted to 10 (corresponding to pH 9.6) using NaOD and DCl (total volume: 1 mL, 23.3 mM stock). HCHO (30.0 mg, 1.0 mmol) was suspended with D2O in a sealed microwave vial and heated until a clear colourless solution was obtained; the pD was then adjusted with NaOD and DCl to 10 (total volume: 3 mL, 1/3 M stock). For time course measurements, the dipeptide stock solutions (100 μL, 2.33 μmol) at pD 10 and D 2O (400 μL) were mixed and recorded. HCHO (70 μL, 23.3 μmol, 10 equivalents) at pD 10 was added and progress was monitored for the indicated time. To investigate the stability of the NMR-observed HCHO adducts, a 40-fold excess with respect to starting material of the HCHO scavenger 1,3-cyclohexanedione (1,3-CHD, 93.2 μL from 1 M stock in D2O) was added. […]
# [3] = NMR stability of HCHO adducts to HCHO scavengers and pH; format: physicochemical; conditions: for stability of HCHO adduct to 1,3-cyclohexanedione (1,3-CHD): 40-fold excess 1,3-CHD, pD 10, analysis period 22 h
# Method: To investigate the stability and reversibility of the HCHO adducts (1a + b, 2a, 3a, 4a), the dipeptides were reacted with a 10-fold excess of HCHO at pD 10, then treated with the HCHO scavenger 1,3-cyclohexanedione (1,3-CHD)[14]. […]
# as §1
# The dipeptide (23.3 µmol) was dissolved in D 2O; the pD was adjusted to 10 (corresponding to pH 9.6) using NaOD and DCl (total volume: 1 mL, 23.3 mM stock). HCHO (30.0 mg, 1.0 mmol) was suspended with D2O in a sealed microwave vial and heated until a clear colourless solution was obtained; the pD was then adjusted with NaOD and DCl to 10 (total volume: 3 mL, 1/3 M stock). For time course measurements, the dipeptide stock solutions (100 μL, 2.33 μmol) at pD 10 and D 2O (400 μL) were mixed and recorded. HCHO (70 μL, 23.3 μmol, 10 equivalents) at pD 10 was added and progress was monitored for the indicated time. To investigate the stability of the NMR-observed HCHO adducts, a 40-fold excess with respect to starting material of the HCHO scavenger 1,3-cyclohexanedione (1,3-CHD, 93.2 μL from 1 M stock in D2O) was added.
# Additionally, stability studies of the HPLC -purified 2a and the corresponding pentapeptide PEPAK-HCHO adduct were conducted. To achieve a 40-fold excess of HCHO scavengers (46.8 μmol) with respect to peptide starting material, the appropriate volumes of GSH (186.4 μL from 250 mM stock), cysteine (46.6 μL from 1 M stock) or 1,3 -cyclohexanedione (46.6 μL from 1 M stock) were added to the peptide-HCHO adducts (50 μL, 1.17 μmol, 23.3 mM stock in D2O) in 400 μL of D2O, thoroughly mixed and recorded. To test for stability of the adduct in different pH conditions, HPLC purified 2a (45 μL of 23.3 mM stock) was dissolved in 405 μL of 50 mM potassium phosphate buffer (D2O) at pH 5.9, 7.4 and 8.5 (pD 6.3, 7.8 and 8.9), thoroughly mixed and recorded.
# [4] = biological target: T2, human JmjC KDM KDM4E (Homo sapiens, UniProt B2RXH2); assay: KDM4E-catalysed H3K9Me3 peptide demethylation, MALDI MS; format: biochemical; conditions: 800 μM NOG instead of 2OG, 24 h
# T2 construct: made in house; host or cells: E. coli BL21(DE3)
# T2 sequence (B2RXH2 with tags, fused parts or gaps): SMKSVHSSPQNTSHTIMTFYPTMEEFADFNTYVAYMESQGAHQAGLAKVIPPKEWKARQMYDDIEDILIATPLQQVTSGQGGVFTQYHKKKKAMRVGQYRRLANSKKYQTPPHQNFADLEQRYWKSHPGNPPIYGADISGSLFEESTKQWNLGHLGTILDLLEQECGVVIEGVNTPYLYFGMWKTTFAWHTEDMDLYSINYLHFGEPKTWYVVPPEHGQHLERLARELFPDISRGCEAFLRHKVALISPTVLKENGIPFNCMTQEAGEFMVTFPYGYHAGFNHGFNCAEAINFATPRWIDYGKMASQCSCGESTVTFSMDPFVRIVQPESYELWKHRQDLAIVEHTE
# [5] = biological target: T3, 4-oxalocrotonate tautomerase (4-OT) (Pseudomonas putida, UniProt Q01468); assay: biochemical
# T3 sequence (Q01468 2-63): as the sequence (Q01468 2-63 limits assumed) above
# [6] = system: H2A; conditions: HEK293T, HCHO, CHX (100 µM)
# Method: (§2) We then investigated whether the H2B-HCHO adduct can be identified in human HEK293T cells treated with HCHO. […] Given that N-terminal amino acids and their modifications can regulate protein stability by affecting degradation (the N-end rule)[27], we next investigated whether addition of HCHO to cells affects H2B turnover. HEK293T cells were treated with cycloheximide (CHX) to inhibit protein synthesis, with addition of HCHO and protein quantification.
# (§3) Figure S26 | Stability of proteins with an N-terminal proline in the presence of HCHO and RNA-Seq analyses. a) HEK293T cells were treated with 120 µM HCHO (or acetone, or MQ water control; 100 mM stock solutions of carbonyl compounds in MQ water) for 14 h. The cells were then treated with 100 µM cycloheximide (CHX; from a 100 mM DMSO stock solution) and were harvested after 3 h.
# (§4) Additionally, HEK293T cells were treated with 120 µM HCHO (or acetone, or MQ water control) for 14 h, followed by addition of CHX. 7.5 h after the CHX treatment, a further 180 µM of the carbonyl […]
# (§5) (1 picture or pasted object on this page, not shown here)
# [7] = system: H2B; conditions: HEK293T, HCHO, >10 h CHX (100 µM)
# Method: as §2, §3, §4, §5
# [8] = system: H3; conditions: HEK293T, HCHO, CHX (100 µM)
# Method: as §2, §3, §4, §5
# [9] = biological target: leukotriene A-4 hydrolase (LTA4H) (Homo sapiens, UniProt P09960); conditions: HEK293T, CHX (100 µM)
# leukotriene A-4 hydrolase (LTA4H), sequence (P09960 2-611 limits assumed): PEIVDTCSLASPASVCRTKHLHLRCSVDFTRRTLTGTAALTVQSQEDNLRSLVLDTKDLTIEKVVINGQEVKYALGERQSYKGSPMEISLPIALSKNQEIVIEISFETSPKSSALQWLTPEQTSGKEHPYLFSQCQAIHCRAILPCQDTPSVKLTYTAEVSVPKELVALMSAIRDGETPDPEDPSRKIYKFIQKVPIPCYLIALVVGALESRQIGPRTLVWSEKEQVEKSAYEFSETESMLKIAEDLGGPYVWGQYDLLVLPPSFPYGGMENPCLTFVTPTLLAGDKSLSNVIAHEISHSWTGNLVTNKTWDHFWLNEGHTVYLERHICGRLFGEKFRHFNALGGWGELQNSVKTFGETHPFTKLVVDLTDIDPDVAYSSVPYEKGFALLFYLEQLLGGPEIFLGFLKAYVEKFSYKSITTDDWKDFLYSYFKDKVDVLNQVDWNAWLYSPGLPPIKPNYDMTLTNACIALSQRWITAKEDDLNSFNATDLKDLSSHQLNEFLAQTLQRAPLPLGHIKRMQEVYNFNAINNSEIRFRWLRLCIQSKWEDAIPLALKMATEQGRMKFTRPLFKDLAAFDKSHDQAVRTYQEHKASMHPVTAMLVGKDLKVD
# Method: as §2, §3, §4, §5
# [10] = in vitro; conditions: human, hek293t cells
# Method: as §2, §5
# [11] = system: H3 mRNA; conditions: HEK293T, HCHO-treated vs untreated, q = 0.034
# Method: as §2
# (§6) (ab133512). Secondary antibodies used were anti-mouse IgG, HRP-linked Antibody (Cell Signaling, reference 7076), anti-Rabbit IgG (H+L) HRP Conjugate (Promega reference W4011).
# (§7) HEK293T cells (0.9x106) were seeded into 6 cm dishes as biological triplicates. The next day, cells were treated with 150 μM HCHO (or MQ water control), followed by another cumulative treatment of 225 μM HCHO (or MQ water control) the day after that. Cells were harvested 4 h af ter the second
# [12] = system: H2A mRNA; conditions: HEK293T, HCHO-treated vs untreated, q = 0.043
# Method: as §2, §6, §7
# [13] = biological target: T3, 4-oxalocrotonate tautomerase (4-OT); conditions: 4-OT (52.9 µM) pre-incubated with 200 equivalents of HCHO (10.6 mM) 17 h, 37 °C; buffer control complete after 14 min
# [14] = biological target: T1, 4-OT; assay: cell-based
# [15] = system: H2B mRNA; conditions: HEK293T, HCHO 150+225 µM vs untreated, q = 0.043
# Method: as §2, §3, §4, §5, §6
# HEK293T cells (0.9x106) were seeded into 6 cm dishes as biological triplicates. […]
# [16] = system: BL21(DE3) cells
structure (smiles),measurement,setting,value
CC=O [acetaldehyde],Km,[1],74 mM
O=C(O)CC[C@@H](C(=O)O)N1CN2CCC[C@H]2C1=O [2a],formation rate of HCHO adduct,[2],0.24 µM/s
same,"stability of HCHO adduct to 1,3-cyclohexanedione (1,3-CHD)",[3],relatively stable
same,stability across a biologically relevant pH range,"[3]; pH 5.9, 7.4 and 8.5",apparently stable
same,stability in the presence of HCHO scavengers cysteine and GSH,[3]; scavengers in 40-fold excess,apparently stable
"C[C@H](N)C(=O)N[C@@H](CCC(=O)O)C(=O)O [compound 4, AlaGlu] (H-Ala-Glu-OH)",formation rate of HCHO adduct,[2],did not react to give a detected product
O=C(O)CNC(=O)C(=O)O [N-oxalylglycine],effect on H3K9Me3 demethylation and +12 Da H2B adduct formation,[4],abolished
C[C@H]1C(=O)N([C@@H](CCC(=O)O)C(=O)O)CN1CO [4a],"stability of HCHO adduct to 1,3-cyclohexanedione (1,3-CHD)",[3],hemiaminal group of 4a was lost to give 4b
O=C(O)CC[C@H](NC(=O)[C@@H]1CCN1CO)C(=O)O [1b],"stability of HCHO adduct to 1,3-cyclohexanedione (1,3-CHD)",[3],"underwent 1,3-CHD-enabled reaction to give 1"
O=C(O)CC[C@@H](C(=O)O)N1CN2CC[C@H]2C1=O [1a],formation rate of HCHO adduct,[2],> 1.73 µM/s
same,"stability of HCHO adduct to 1,3-cyclohexanedione (1,3-CHD)",[3],"underwent 1,3-CHD-enabled reaction to give 1"
"C=O [HCHO, Formaldehyde]",IC50,[5],< 10000 µM
same,H2A levels after prolonged CHX treatment,[6],higher levels
same,H2B levels after prolonged CHX treatment,[7],apparently higher H2B levels
same,H3 levels after prolonged CHX treatment,[8],higher levels
same,HCHO-dependent effect on LTA4H stability,[9],no evidence for a HCHO-dependent effect on its stability
same,MNTC,[10],> 200 µM
same,"H3 mRNA level, fold less in untreated cells",[11],0.42 fold
same,"H2A mRNA level, fold less in untreated cells",[12],0.33 fold
same,time to near-complete substrate conversion,[13],> 72 min
same,EC50,[14],~350 µM
same,"H2B mRNA level, fold less in untreated cells",[15],0.37 fold
same,effect on cell proliferation,[16]; 350 μM HCHO,did not inhibit
same,effect on cell proliferation,[16]; 700 μM HCHO,only mildly inhibited
O=C(O)CC[C@@H](C(=O)O)N1CN2CCCC[C@H]2C1=O [3a],formation rate of HCHO adduct,[2],0.054 µM/s
same,"stability of HCHO adduct to 1,3-cyclohexanedione (1,3-CHD)",[3],relatively stable
